Measured values published in the supplement of paper PMC7108870.

Assays:
[1] = system: HEK293sieSTAT3(Y640F); assay: drug sensitivity score (DSS), cytotoxicity CellTox Green (DSS (dimensionless)); higher = more cytotoxic; extreme values may be limits of the assay; conditions: 72 h; STAT3 variant: Y640F (constitutively active)
Method in brief: (§1)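 HEK293 cells bearing a STAT3-dependent luciferase reporter and overexpressing wild-type or mutant STAT3 were incubated with compounds at 5 concentrations in 10-fold steps for 72 hours at 37°C and 5% CO2. CellTox Green fluorescence and then CellTiter-Glo luminescence were measured, and values were normalised to negative and positive control wells. In Breeze, a drug sensitivity score was computed from the dose-response curve area.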

[2] = system: HEK293sieSTAT3(wt); assay: as above; conditions: 72 h; STAT3 variant: wild type
Method in brief: as §1

[3] = system: HEK293sieSTAT3(Y640F); assay: drug sensitivity score (DSS), viability CellTiter-Glo (DSS (dimensionless)); higher = more growth inhibition; extreme values may be limits of the assay; conditions: 72 h; STAT3 variant: Y640F (constitutively active)
Method in brief: as §1

[4] = system: HEK293sieSTAT3(wt); assay: as above; conditions: 72 h; STAT3 variant: wild type
Method in brief: as §1

SMILES | drug sensitivity score [1] | drug sensitivity score [2] | drug sensitivity score [3] | drug sensitivity score [4]
COCC(=O)NC/C=C/c1ccc2ncnc(Nc3ccc(Oc4ccc(C)nc4)c(C)c3)c2c1 (top concentration tested 10000 nM) | 0 | 2.66 | 1.25 | 3.61
COc1cc2ncnc(Oc3cccc(NC(=O)Nc4cc(C(C)(C)C(F)(F)F)on4)c3)c2cc1OC (top concentration tested 10000 nM) | 0.44 | 0 | 1.53 | 2.4
COc1ccc(-c2cc3c(C)nc(N)nc3n([C@H]3CC[C@H](OCCO)CC3)c2=O)cn1 (top concentration tested 10000 nM) | 0 | 2.91 | 20.1 | 23.3
COc1ccc(Cn2ccc3ccc(C(=O)NO)cc32)cc1 (top concentration tested 10000 nM) | 0 | 0 | 2.79 | 3.02
CS(=O)(=O)N1CCc2c(-c3cnc(N)nc3)nc(N3CCOCC3)nc21 (top concentration tested 10000 nM) | 0 | 5.98 | 12 | 15.5
C[C@@H](Oc1cc(-n2cnc3ccc(CN4CCN(C)CC4)cc32)sc1C(N)=O)c1ccccc1C(F)(F)F (top concentration tested 10000 nM) | 15.3 | 37.4 | 37.9 | 36.5
C[C@@]1(C(=O)Nc2ccc(F)nc2)CCCN1c1nc(Nc2cc(C3CC3)n[nH]2)c2cccn2n1 (top concentration tested 10000 nM) | 0.48 | 5.21 | 17.4 | 15.8
Cc1c(Cn2c(C)nc3c(C(=O)O)cc(N4CCOCC4)cc32)cccc1C(F)(F)F (top concentration tested 10000 nM) | 0 | 0.07 | 0.96 | 3
Cc1c(NC(=O)OC[C@@H]2COCCN2)cn2ncnc(Nc3ccc4c(cnn4Cc4cccc(F)c4)c3)c12 (top concentration tested 10000 nM) | 0.83 | 6.8 | 2.59 | 6.6
Cc1nc(Nc2n[nH]c3c2CN(C(=O)N[C@H](CN(C)C)c2ccccc2)C3(C)C)c2sccc2n1 (top concentration tested 10000 nM) | 0.9 | 34 | 19.3 | 32.7
Cn1cc(-c2ccc3nnc(C(F)(F)c4ccc5ncccc5c4)n3n2)cn1 (top concentration tested 10000 nM) | 0 | 0 | 0 | 3.09
Cn1cc(C2=Nc3cc(NC(=O)C(N)C4CCCCC4)cc4c3C2=CNNC4=O)cn1 (configuration not stated) (top concentration tested 10000 nM) | 2.57 | 5.91 | 17.5 | 15.8
N#Cc1ccc(COC[C@H]2O[C@@H](n3c(NCc4ccc(Cl)c(Cl)c4)nc4c(N)ncnc43)[C@H](O)[C@@H]2O)cc1 (top concentration tested 10000 nM) | 0 | 0.11 | 4.87 | 3.11
NC[C@@](O)(c1ccc(Cl)cc1)c1ccc(-c2cn[nH]c2)cc1 (top concentration tested 10000 nM) | 6.08 | 6.61 | 7.85 | 6.8
Nc1nccc(-c2c(-c3ccc(F)cc3)ncn2C2CCCCC2)n1 (top concentration tested 10000 nM) | 0 | 0 | 3.49 | 4.08
Nc1ncnc2c1c(COc1cccc(Cl)c1)nn2C1CCOCC1 (top concentration tested 10000 nM) | 0 | 0 | 0 | 0.14
O=C(NC[C@H](O)CN1CCc2ccccc2C1)c1cc(NC2COC2)ncn1 (top concentration tested 10000 nM) | 0 | 0 | 0 | 0
O=C(NOCC1CC1)c1ccc(F)c(F)c1Nc1ccc(I)cc1Cl (top concentration tested 10000 nM) | 0 | 0 | 1.63 | 2.33
O=C(Nc1ccc2[nH]nc(-c3ccncc3)c2c1)[C@@H]1CCN(CC(=O)N2CCN(c3ccc(-c4ncccn4)cc3)CC2)C1 (top concentration tested 10000 nM) | 0.69 | 0 | 3.37 | 1.44
O=C(O)c1ccc(CN2CCC(CN[C@@H]3C[C@H]3c3ccccc3)CC2)cc1 (top concentration tested 10000 nM) | 0 | 0 | 0 | 0
O=C1NC(=O)/C(=C/c2ccc3nccc(-c4ccncc4)c3c2)S1 (top concentration tested 10000 nM) | 0 | 3.49 | 15.4 | 11.3
O=c1[nH]c(C2CCCN2)nc2c1oc1ccc(Cl)cc12 (configuration not stated) (top concentration tested 10000 nM) | 0 | 0 | 5.66 | 6.39
Cc1ccc(C(=O)Nc2ccc(CN3CCN(C)CC3)c(C(F)(F)F)c2)cc1C#Cc1cnc2cccnn12 [Ponatinib] (top concentration tested 1000 nM) | – | – | 6.74 | 9.83
CCC(C)(C)C(=O)O[C@H]1C[C@@H](C)C=C2C=C[C@H](C)[C@H](CC[C@@H]3C[C@@H](O)CC(=O)O3)[C@H]21 [Simvastatin] (top concentration tested 10000 nM) | – | – | 0.89 | 3.28
